Key:
PKCθ = biological target: T1, PKCθ (Homo sapiens, UniProt Q04759); experiment: In vitro enzyme assay (time-resolved fluorescence kinase assay), PKCθ, 100 μM ATP; format: biochemical
T1 construct: His6; purchased Millipore; host or cells: baculovirus in Sf21 cells
Method in brief: (§1)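 Read-out was time-resolved fluorescence, corrected for a minus-enzyme blank and converted to percent activity relative to enzyme without drug. They were stopped with EDTA.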

PKCα = biological target: T2, PKCα (Homo sapiens, UniProt P17252); experiment: In vitro enzyme assay (time-resolved fluorescence kinase assay), PKCα, 100 μM ATP; format: biochemical; settings: 100 μM ATP; read-out: PKCα enzyme IC50
T2 construct: His6; purchased Millipore; host or cells: baculovirus in Sf21 cells
Method in brief: as §1

[1] = test system: CD3/CD28 induced IL-2 in human T-Blasts; experiment: T-Blasts CD3/CD28 induced IL-2 assay; format: cell-based; settings: read-out: CD3/CD28-stimulated IL2 in T-blasts EC50
Method in brief: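 PHA-generated human T-blasts, 2×10^5 per well, preincubated 30 min with 8-point 1/3 compound dilutions in duplicate, then stimulated with anti-CD3+anti-CD28 (5 μg/mL final) for 24 h at 37° C. Supernatant IL-2 measured; MTT toxicity run on remaining cells.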

T1 sequence (Q04759 whole entry): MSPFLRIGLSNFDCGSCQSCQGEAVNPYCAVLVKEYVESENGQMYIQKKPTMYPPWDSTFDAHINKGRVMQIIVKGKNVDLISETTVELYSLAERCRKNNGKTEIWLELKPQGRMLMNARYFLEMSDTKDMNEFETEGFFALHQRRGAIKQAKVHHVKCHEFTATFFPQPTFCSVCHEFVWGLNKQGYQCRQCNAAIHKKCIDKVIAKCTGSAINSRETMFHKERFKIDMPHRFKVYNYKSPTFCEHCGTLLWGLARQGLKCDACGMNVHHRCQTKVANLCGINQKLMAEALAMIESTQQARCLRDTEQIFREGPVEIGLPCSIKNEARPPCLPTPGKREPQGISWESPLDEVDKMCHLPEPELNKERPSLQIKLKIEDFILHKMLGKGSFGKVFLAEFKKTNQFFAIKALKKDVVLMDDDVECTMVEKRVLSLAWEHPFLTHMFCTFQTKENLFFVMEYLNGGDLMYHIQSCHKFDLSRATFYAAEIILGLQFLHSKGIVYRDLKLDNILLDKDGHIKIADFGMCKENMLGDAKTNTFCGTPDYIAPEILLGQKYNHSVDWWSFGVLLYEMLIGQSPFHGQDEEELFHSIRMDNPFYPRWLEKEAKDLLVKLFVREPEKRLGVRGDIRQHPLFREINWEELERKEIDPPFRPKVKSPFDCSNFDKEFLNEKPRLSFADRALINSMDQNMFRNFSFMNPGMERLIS

C[C@@H]1C(=O)NN=C2COc3cc(-c4ccccc4CCO)c(N(C)C4(C)CN(C)C4)cc3N21 [Example 180]
IC50 (PKCθ): < 250 nM
IC50 (PKCα): 1000 to 10000 nM
EC50 [1]: < 250 nM
